Ki data for 22 compounds are collected here from patent publication US11014911B2, “CDK2 inhibitors” (Pfizer Inc., priority 2019, dated 2021).

For the assay, the target named is CDK2/Cyclin E1 full length (Homo sapiens (Human), UniProt P24941). As to the kind of experiment: CDK2/Cyclin E1 full length mobility shift assay. Format: biochemical.
As a reminder, the Ki is a dissociation constant, usually derived from enzyme kinetics or from competition with a known ligand. Turning to `COc1ncccc1CC(=O)Nc1cc([C@H]2CC[C@@H](OC(=O)NC(C)(C)C)C2)[nH]n1` [Example 307, (1R,3S)-3-(3-{[(2-methoxypyridin-3-yl)acetyl]amino}-1H-pyrazol-5-yl)cyclopentyl tert-butylcarbamate], the Ki was found to be 0.73 nM.

For the compound `COc1nn(C)cc1CC(=O)Nc1cc([C@H]2CC[C@@H](OC(=O)NC(C)(C)C)C2)[nH]n1` [Example 309, (1R,3S)-3-(3-{[(3-methoxy-1-methyl-1H-pyrazol-4-yl)acetyl]amino}-1H-pyrazol-5-yl)cyclopentyl tert-butylcarbamate], the Ki was found to be 1.55 nM.

As to `CC(C)(C)NC(=O)O[C@@H]1CC[C@H](c2cc(NC(=O)Cc3ccc(Cl)cn3)n[nH]2)C1` [Example 310, (1R,3S)-3-(3-{[(5-chloropyridin-2-yl)acetyl]amino}-1H-pyrazol-5-yl)cyclopentyl tert-butylcarbamate], the Ki came out at 0.69 nM.

As for `COc1cnc(CC(=O)Nc2cc([C@H]3CC[C@@H](OC(=O)NC(C)(C)C)C3)[nH]n2)s1` [Example 311, (1R,3S)-3-(3-{[(5-methoxy-1,3-thiazol-2-yl)acetyl]amino}-1H-pyrazol-5-yl)cyclopentyl tert-butylcarbamate], the inhibition constant Ki is 0.36 nM.

For the compound `Cc1nc(CC(=O)Nc2cc([C@H]3CC[C@@H](OC(=O)NC(C)(C)C)C3)[nH]n2)ccc1Cl` [Example 312, (1R,3S)-3-(3-{[(5-chloro-6-methylpyridin-2-yl)acetyl]amino}-1H-pyrazol-5-yl)cyclopentyl tert-butylcarbamate], the Ki is 0.43 nM.

As to `Cc1ccnc(CC(=O)Nc2cc([C@H]3CC[C@@H](OC(=O)NC(C)(C)C)C3)[nH]n2)c1Cl` [Example 313, (1R,3S)-3-(3-{[(3-chloro-4-methylpyridin-2-yl)acetyl]amino}-1H-pyrazol-5-yl)cyclopentyl tert-butylcarbamate], the Ki was determined as 0.63 nM.

With `CC(C)(C)NC(=O)O[C@@H]1CC[C@H](c2cc(NC(=O)Cc3cc(C(F)(F)F)ccn3)n[nH]2)C1` [Example 316, (1R,3S)-3-[3-({[4-(trifluoromethyl)pyridin-2-yl]acetyl}amino)-1H-pyrazol-5-yl]cyclopentyl tert-butylcarbamate], the Ki is 1.3 nM.

Take `CC(C)(C)NC(=O)O[C@@H]1CC[C@H](c2cc(NC(=O)Cc3cnn(CC(F)(F)F)n3)n[nH]2)C1` [Example 318, (1R,3S)-3-[3-({[2-(2,2,2-trifluoroethyl)-2H-1,2,3-triazol-4-yl]acetyl}amino)-1H-pyrazol-5-yl]cyclopentyl tert-butylcarbamate]: the Ki stood at 0.53 nM.

Regarding `CC[C@H](C)NC(=O)O[C@@H]1CC[C@H](c2cc(NC(=O)c3cnn(C)c3)n[nH]2)C1` [Example 320, (1R,3S)-3-(3-{[(1-methyl-1H-pyrazol-4-yl)carbonyl]amino}-1H-pyrazol-5-yl)cyclopentyl (2S)-butan-2-ylcarbamate], the Ki was found to be 2.95 nM.

`CC[C@H](C)NC(=O)O[C@@H]1CC[C@H](c2cc(NC(=O)Cc3ccn(C)n3)n[nH]2)C1` [Example 328, (1R,3S)-3-(3-{[(1-methyl-1H-pyrazol-3-yl)acetyl]amino}-1H-pyrazol-5-yl)cyclopentyl (2S)-butan-2-ylcarbamate]: the Ki was determined as 1.77 nM.

On to `CC[C@H](C)NC(=O)O[C@@H]1CC[C@H](c2cc(NC(=O)Cc3cn(C)nn3)n[nH]2)C1` [Example 331, (1R,3S)-3-(3-{[(1-methyl-1H-1,2,3-triazol-4-yl)acetyl]amino}-1H-pyrazol-5-yl)cyclopentyl (2S)-butan-2-ylcarbamate], for which the Ki was 1.49 nM.

Take `CC[C@H](C)NC(=O)O[C@@H]1CC[C@H](c2cc(NC(=O)Cc3nnc(C)o3)n[nH]2)C1` [Example 334, (1R,3S)-3-(3-{[(5-methyl-1,3,4-oxadiazol-2-yl)acetyl]amino}-1H-pyrazol-5-yl)cyclopentyl (2S)-butan-2-ylcarbamate]: the Ki is 1.6 nM.

As for `CC[C@H](C)NC(=O)O[C@@H]1CC[C@H](c2cc(NC(=O)Cc3cnn(CC)n3)n[nH]2)C1` [Example 339, (1R,3S)-3-(3-{[(2-ethyl-2H-1,2,3-triazol-4-yl)acetyl]amino}-1H-pyrazol-5-yl)cyclopentyl (2S)-butan-2-ylcarbamate], the Ki worked out at 0.66 nM.

Regarding `CC[C@H](C)NC(=O)O[C@@H]1CC[C@H](c2cc(NC(=O)Cc3c(C)noc3C)n[nH]2)C1` [Example 340, (1R,3S)-3-(3-{[(3,5-dimethyl-1,2-oxazol-4-yl)acetyl]amino}-1H-pyrazol-5-yl)cyclopentyl (2S)-butan-2-ylcarbamate], the Ki was found to be 2.24 nM.

For the compound `CC[C@H](C)NC(=O)O[C@@H]1CC[C@H](c2cc(NC(=O)Cc3ncc(C)s3)n[nH]2)C1` [Example 341, (1R,3S)-3-(3-{[(5-methyl-1,3-thiazol-2-yl)acetyl]amino}-1H-pyrazol-5-yl)cyclopentyl (2S)-butan-2-ylcarbamate], the Ki worked out at 0.64 nM.

Take `CC[C@H](C)NC(=O)O[C@@H]1CC[C@H](c2cc(NC(=O)Cc3nnc(C)s3)n[nH]2)C1` [Example 344, (1R,3S)-3-(3-{[(5-methyl-1,3,4-thiadiazol-2-yl)acetyl]amino}-1H-pyrazol-5-yl)cyclopentyl (2S)-butan-2-ylcarbamate]: the Ki was 0.58 nM.

As for `CC[C@H](C)NC(=O)O[C@@H]1CC[C@H](c2cc(NC(=O)Cc3cccnc3OC)n[nH]2)C1` [Example 345, (1R,3S)-3-(3-{[(2-methoxypyridin-3-yl)acetyl]amino}-1H-pyrazol-5-yl)cyclopentyl (2S)-butan-2-ylcarbamate], the Ki came to 2.66 nM.

Take `CC[C@H](C)NC(=O)O[C@@H]1CC[C@H](c2cc(NC(=O)Cc3cnc(OC)cn3)n[nH]2)C1` [Example 347, (1R,3S)-3-(3-{[(5-methoxypyrazin-2-yl)acetyl]amino}-1H-pyrazol-5-yl)cyclopentyl (2S)-butan-2-ylcarbamate]: the Ki came out at 0.37 nM.

For the compound `CC[C@H](C)NC(=O)O[C@@H]1CC[C@H](c2cc(NC(=O)Cc3cn(C(C)C)nn3)n[nH]2)C1` [Example 350, (1R,3S)-3-[3-({[1-(propan-2-yl)-1H-1,2,3-triazol-4-yl]acetyl}amino)-1H-pyrazol-5-yl]cyclopentyl (2S)-butan-2-ylcarbamate], the Ki came to 3.45 nM.

In the case of `CC[C@H](C)NC(=O)O[C@@H]1CC[C@H](c2cc(NC(=O)Cc3cn(C)nc3OC)n[nH]2)C1` [Example 351, (1R,3S)-3-(3-{[(3-methoxy-1-methyl-1H-pyrazol-4-yl)acetyl]amino}-1H-pyrazol-5-yl)cyclopentyl (2S)-butan-2-ylcarbamate], the Ki was determined as 2.77 nM.

For `CC[C@H](C)NC(=O)O[C@@H]1CC[C@H](c2cc(NC(=O)Cc3cn4cccnc4n3)n[nH]2)C1` [Example 354, (1R,3S)-3-{3-[(imidazo[1,2-a]pyrimidin-2-ylacetyl)amino]-1H-pyrazol-5-yl}cyclopentyl (2S)-butan-2-ylcarbamate], the Ki came to 3.74 nM.

As to `CC[C@H](C)NC(=O)O[C@@H]1CC[C@H](c2cc(NC(=O)Cc3cn4ccc(C)nc4n3)n[nH]2)C1` [Example 357, (1R,3S)-3-(3-{[(7-methylimidazo[1,2-a]pyrimidin-2-yl)acetyl]amino}-1H-pyrazol-5-yl)cyclopentyl (2S)-butan-2-ylcarbamate], the Ki was found to be 4.08 nM.
